Reference: patent US20210338708A1, “METHOD FOR TREATMENT OF CORONAVIRUS INFECTION” (Renibus Therapeutics, Inc., priority 2020, published 2021)
Several values for one entry are separate records, joined by “and”; a condition that tells them apart may be missing. Identical values can stand only once. Like-named read-outs stand apart in the source and are kept apart here.

Key:
[1] = system: Vero E6 cell line; conditions: Vero E6 cell line in the presence of SARS-CoV-2; NCATS/NIH data; cited from earlier work
[2] = system: SARS-CoV-2; test: Reduction of virus-induced cytopathic effect (visual and neutral red) within secondary assay; format: cell-based, SARS-CoV-2 USA_WA1/2020; conditions: Vero 76, 1 hour pretreatment of compound and virus
Protocol: Confluent or near-confluent cell culture monolayers of Vero 76 cells are prepared in 96-well disposable microplates the day before testing. Cells are maintained in minimum essential medium (MEM) supplemented with 5% FBS. For antiviral assays the same medium is used but with FBS reduced to 2% and supplemented with 50-μg/ml gentamicin. Compounds are dissolved in DMSO, saline or the diluent requested by the submitter. […] The test compound is prepared at four serial log 10 concentrations, usually 0.1, 1.0, 10, and […] or μM (per sponsor preference). Lower concentrations are used when insufficient compound is supplied. Five microwells are used per dilution: three for infected cultures and two for uninfected toxicity cultures. Controls for the experiment consist of six microwells that are infected and not treated (virus controls) and six that are untreated and uninfected (cell controls) on every plate. A known active drug is tested in parallel as a positive control drug using the same method as is applied for test compounds. […]
Growth media is removed from the cells and the test compound is applied in 0.1 ml volume to wells at 2× concentration. […] The dye content in each well is quantified using a spectrophotometer at 540 nm wavelength. […]
Active compounds are further tested in a confirmatory assay. […] The incorporated dye content is quantified as described above to generate the EC50 and CC50 values.

[3] = system: dengue virus; conditions: by inhibiting synthesis of NSP1; cited from earlier work
[4] = system: yellow fever virus; conditions: by inhibiting synthesis of NSP1; cited from earlier work
[5] = system: SARS-CoV-2; test: Reduction of virus yield (Secondary VYR assay); format: cell-based, SARS-CoV-2 USA_WA1/2020; conditions: Vero 76, 1 hour pretreatment of compound and virus, read-out: TEST EC90
Protocol: Active compounds are further tested in a confirmatory assay. This assay is set up similar to the methodology described above only eight half-log 10 concentrations of inhibitor are tested for antiviral activity and cytotoxicity. After sufficient virus replication occurs (3 days for SARS-CoV-2), a sample of supernatant is taken from each infected well (three replicate wells are pooled) and tested immediately or held frozen at −80° C. for later virus titer determination. After maximum CPE is observed, the viable plates are stained with neutral red dye. The incorporated dye content is quantified as described above to generate the EC50 and CC50 values.
Virus yielded in the presence of test compound is titrated and compared to virus titers from the untreated virus controls. Titration of the viral samples (collected as described in the paragraph above) is performed by endpoint dilution (Reed, L. J., and H. Muench. “A Simple Method of Estimating Fifty Percent Endpoints.” Am J Hyg 27 (1938): 493-98.)
Serial 1/10 dilutions of virus are made and plated into 4 replicate wells containing fresh cell monolayers of Vero 76 cells. Plates are then incubated, and cells are scored for the presence or absence of virus after a distinct CPE is observed, and the CCID50 calculated using the Reed-Muench method. […]

[6] = system: SARS-CoV-2; format: cell-based, SARS-CoV-2 (2019-nCoV/USA-WA1/2020 strain)
[7] = system: Vero 76 cells
[8] = system: SARS-CoV-2; format: cell-based, SARS-CoV-2 (2019-nCoV/USA-WA1/2020 strain); conditions: viral replication; for % reduction relative to virus control / Virus titer, Average: 11.11 μM; for Virus titer, Rep-1 to Rep-3: 100 μM
[9] = system: SARS-CoV-2; format: cell-based, SARS-CoV-2 (2019-nCoV/USA-WA1/2020 strain); conditions: for Plaque counts: replicates, viral replication, Vero E6, 24 h
[10] = system: SARS-CoV-2; format: cell-based, SARS-CoV-2 (2019-nCoV/USA-WA1/2020 strain); conditions: for Plaque counts: replicates, direct inactivation, Vero E6, 24 h
[11] = system: Vero E6 cells

For `C=CC1=C(C)c2cc3[n-]c(cc4[n-]c(cc5nc(cc1n2)C(C)=C5C=C)c(C)c4CCC(=O)O)c(CCC(=O)O)c3C.[Sn+2]` [RBT-9, Stannous protoporphyrin], the CC50 [1] is given as > 30000 nM, the EC50 ([2]; neutral red, read-out: NR EC50) is given as 1500 nM and the EC50 ([2]; visual, read-out: VIS EC50) is given as 1500 nM. The “inhibition of viral infection” value [3] was “inhibit viral infection”, the “inhibition of viral infection” value [4] was “inhibit viral infection” and the EC90 [5] was 970 nM. For the same compound, the “% reduction relative to virus control” value [6] was 46.2%, the “Virus titer, Average” value [6] was 0.98×10^4 PFU/ml and the “% reduction relative to virus control” value ([6]; 0.411 μM, direct inactivation) was “No reduction”. The “Virus titer, Average” value ([6]; 0.411 μM, direct inactivation) was 1.83 × 10^4 PFU/ml, the “Virus titer, Rep-1 to Rep-3” value ([6]; 0.411 μM, direct inactivation) was 2.25 × 10^4 PFU/ml and 1.75 × 10^4 PFU/ml and 1.5 × 10^4 PFU/ml and the “% reduction relative to virus control” value ([6]; 0.411 μM, direct inactivation, listed as SnPP) was “no reduction”. For the same compound, the “% reduction relative to virus control” value ([6]; 3.7 μM, direct inactivation) was 98.6%, the “Virus titer, Average” value ([6]; 3.7 μM, direct inactivation) was 0.25 × 10^4 PFU/ml and the “% reduction relative to virus control” value ([6]; 3.7 μM, direct inactivation, listed as SnPP) was “About 98.6%”. For the same compound, the CC50 [7] was 39000 nM, the CC50 ([7]; read-out: VIS CC50, visual, Vero 76) was 27000 nM and the “% reduction relative to virus control” value [8] was 48%. For the same compound, the “Virus titer, Average” value [8] was 2 × 10^4 pfu/ml, the “% reduction relative to virus control” value ([8]; listed as SnPP) was “about 48%” and the “Virus titer, Average” value ([8]; listed as SnPP) was 2×10^4. For the same compound, the “Virus titer, Rep-1 to Rep-3” value [8] was “not detected”, the “Virus titer, Rep-1 to Rep-3” value ([8]; listed as SnPP) was “could not be detected” and the Plaque counts ([9]; 0.005 μM) was 363 and 342 and 223 and 294. For the same compound, the Plaque counts ([9]; 0.015 μM) was 136 and 228 and 172 and 164, the Plaque counts ([9]; 0.046 μM) was 170 and 167 and 182 and 259 and the Plaque counts ([9]; 0.14 μM) was 293 and 228 and 264 and 211. The Plaque counts ([9]; 0.41 μM) was 292 and 243 and 309 and 304, the Plaque counts ([9]; 1.23 μM) was 290 and 286 and 320 and 294 and the Plaque counts ([9]; 3.70 μM) was 130 and 125 (2×) and 153. The Plaque counts ([9]; 11.11 μM) was 143 and 134 and 129 and 145, the Plaque counts ([9]; 33.33 μM) was 89 and 99 and 78 and 79 and the Plaque counts ([9]; 100 μM) was 15 (2×) and 12 and 7. The EC50 ([9]; read-out: EC50, SARS-CoV-2 replication) was 45700 nM, the Plaque counts ([10]; 0.005 μM) was 203 and 304 and 260 and 236 and the Plaque counts ([10]; 0.015 μM) was 189 and 212. For the same compound, the Plaque counts ([10]; 0.046 μM) was 222 and 332 and 256 and 196, the Plaque counts ([10]; 0.14 μM) was 217 and 354 and 230 and 174 and the Plaque counts ([10]; 0.41 μM) was 259 and 194 and 205 and 235. For the same compound, the Plaque counts ([10]; 1.23 μM) was 117 and 64 and 132 and 189, the Plaque counts ([10]; 3.70 μM) was 0 (3×) and 48 and the Plaque counts ([10]; 11.11 μM) was 0. For the same compound, the Plaque counts ([10]; 33.33 μM) was 0, the Plaque counts ([10]; 100 μM) was 0 and the EC50 ([10]; read-out: mean EC50, direct SARS-CoV-2 inactivation) was 1320 nM. For the same compound, the “cytopathic effect (CPE) of SnPP” value [11] was “did not observe a cytopathic effect (CPE)”.
In the case of `CCC(CC)COC(=O)[C@H](C)N[P@](=O)(OC[C@H]1O[C@@](C#N)(c2ccc3c(N)ncnn23)[C@H](O)[C@@H]1O)Oc1ccccc1` [Remdesivir, reference compound], the Plaque counts ([9]; 0.003 μM) is reported as 353 and 324, the Plaque counts ([9]; 0.008 μM) is reported as 195 and the Plaque counts ([9]; 0.023 μM) is reported as 245. The Plaque counts ([9]; 0.07 μM) was 233 and 192, the Plaque counts ([9]; 0.21 μM) was 212 and 200 and the Plaque counts ([9]; 0.62 μM) was 274 and 270. The Plaque counts ([9]; 1.85 μM) was 64 and 76, the Plaque counts ([9]; 5.56 μM) was 0 and the Plaque counts ([9]; 16.67 μM) was 0. It also gave a Plaque counts ([9]; 50 μM) of 0.
